Experimental data: paper PMC10503797, “Allosteric modulator potentiates β2AR agonist–promoted bronchoprotection in asthma models” (The Journal of Clinical Investigation, 2023)
Where “and” joins values, the source holds several entries; their conditions need not be identical. Identical values can stand only once.

Columns and labels:
guinea pig lung slices = experiment: Methacholine-induced airway constriction in guinea pig lung slices; type: cell-based; set-up: key to MCh-induced airway constriction response (Figure 5D): % of initial (baseline) airway luminal area; conditions: for MCh-induced airway constriction response (Figure 5D): 10 µM Fenoterol + 25 µM Cmp6, Exp1-6
Protocol: All curve fits were generated using the software program GraphPad Prism. Data are represented as mean ± SEM obtained from 6 guinea pigs.
(§1) Precision-cut lung slices were prepared as described previously ([61], [62]). A 3% solution of low melting-point agarose (Gerbu Biotechnik GmbH) in ultrapure water was prepared by heating it a microwave until fully dissolved. […] After filling, the lungs were covered with ice for 30 minutes to solidify the agarose for slicing. […] Lung slices were cut at a thickness of 500 μm and washed several times with slicing buffer to remove debris and washout the isoproterenol. Slices were incubated overnight in a 60 mm dish in sterile incubation buffer: MEM composed of lung slice buffer supplemented with 0.5 mM sodium pyruvate, 1 mM glutamine (Gibco), MEM-amino acids mixture (1:50), MEM-vitamins mixture (1:100; Gibco), and penicillin-streptomycin (1:100; Gibco), pH = 7.2, at 37°C in a CO2- and humidity-controlled atmosphere.
(§2) After washing the slices in medium, individual guinea pig lung slices were mechanically maintained with a Teflon ring with an inner diameter of 7 mm and covered with 1 mL of incubation buffer. […] Image acquisition software (NIS-Elements, Nikon) was used to quantify airway luminal area. Images of the airways were acquired every 2 seconds during the whole course of the experiment, starting 2 minutes before the addition of any agent to allow for baseline measurements of the airway caliber. For each methacholine or ovalbumin concentration, the maximal airway constriction was expressed as percentage of the initial (baseline) airway luminal area and plotted against that concentration.

WT murine β2AR = WT murine β2AR (Mus musculus, UniProt P18762); experiment: 125I-CYP radioligand competition binding, WT murine β2AR; conditions: WT DMSO
Chain of WT murine β2AR (P18762 whole entry): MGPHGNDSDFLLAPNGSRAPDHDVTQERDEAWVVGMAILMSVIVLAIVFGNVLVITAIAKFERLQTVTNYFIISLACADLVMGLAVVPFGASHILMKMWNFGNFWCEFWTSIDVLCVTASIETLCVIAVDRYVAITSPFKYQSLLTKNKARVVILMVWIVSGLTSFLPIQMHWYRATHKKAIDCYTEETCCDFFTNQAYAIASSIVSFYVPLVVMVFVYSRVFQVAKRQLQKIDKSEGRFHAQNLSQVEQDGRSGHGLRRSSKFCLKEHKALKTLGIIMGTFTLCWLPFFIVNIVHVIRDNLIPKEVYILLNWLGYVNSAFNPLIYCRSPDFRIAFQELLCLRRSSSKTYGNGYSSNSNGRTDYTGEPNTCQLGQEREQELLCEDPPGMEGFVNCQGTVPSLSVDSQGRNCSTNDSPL
Protocol: (§3) Statistical analyses were performed using 1-way ANOVA, repeated (related) measures with Tukey’s posthoc test.

guinea pig β2AR = guinea pig β2AR (Cavia porcellus, UniProt Q8K4Z4); experiment: 125I-CYP radioligand competition binding, guinea pig β2AR; conditions: DMSO
Chain of guinea pig β2AR (Q8K4Z4 whole entry): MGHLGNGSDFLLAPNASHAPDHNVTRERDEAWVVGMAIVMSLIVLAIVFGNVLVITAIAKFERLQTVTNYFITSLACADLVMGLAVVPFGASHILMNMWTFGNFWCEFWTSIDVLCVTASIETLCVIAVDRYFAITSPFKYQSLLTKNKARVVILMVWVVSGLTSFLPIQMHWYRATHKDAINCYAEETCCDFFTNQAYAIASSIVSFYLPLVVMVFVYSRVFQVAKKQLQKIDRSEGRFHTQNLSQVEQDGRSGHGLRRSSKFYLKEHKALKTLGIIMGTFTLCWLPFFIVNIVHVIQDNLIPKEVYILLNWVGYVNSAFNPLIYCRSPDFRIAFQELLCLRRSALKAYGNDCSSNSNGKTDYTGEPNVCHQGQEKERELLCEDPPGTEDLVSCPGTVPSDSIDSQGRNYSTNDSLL

V133F mutant murine β2AR = V133F mutant murine β2AR (Mus musculus, UniProt P18762, V133F); experiment: 125I-CYP radioligand competition binding, V133F mutant murine β2AR; conditions: V133F DMSO
Chain of V133F mutant murine β2AR (P18762 whole entry V133F): as the sequence (P18762 whole entry) above, with V133F counted along it
Protocol: as §3

[1] = test system: lung slices obtained from ovalbumin-sensitized guinea pigs; experiment: Ovalbumin-induced airway constriction in lung slices from ovalbumin-sensitized guinea pigs; type: cell-based, guinea pig; conditions: ovalbumin-sensitized guinea pigs; no treatment
Source text: All curve fits were generated using the software program GraphPad Prism. Data are represented as mean ± SEM of 4–5 guinea pigs (see Table 2 for statistical analyses).
Outbred, male, specified pathogen-free Dunkin Hartley guinea pigs (Charles River Laboratory) weighing 200 to 400 g were used. The animals were housed in pairs under a 12-hour light/dark cycle in a temperature- and humidity-controlled room with food and tap water ad libitum. For studies in the guinea pig model of allergic asthma, animals were actively IgE-sensitized to ovalbumin by injecting a suspension containing 100 μg/mL ovalbumin and 100 mg/mL Al(OH)3 in saline. Each animal was injected with 1.0 mL of suspension: 0.5 mL was injected i.p. and 0.5 mL was divided over 7 s.c. sites close to lymph nodes in the neck, paws, and lumbar regions ([24]). Animals were euthanized at least 4 weeks after sensitization.
as §1, §2

COc1ccc(Sc2ccc(S(=O)(=O)N(C)C(C)C)cc2C(=O)N[C@H](CC(N)=O)Cc2ccc(C(C)(C)C)cc2)cc1 [Cmp6]
MCh-induced airway constriction response (Figure 5D) (guinea pig lung slices; -Log [MCh] 6.5): 84.9 and 96.3 and 94.4 and 89.0 and 84.3
MCh-induced airway constriction response (Figure 5D) (guinea pig lung slices; -Log [MCh] 7): 103.8 and 101.2 and 95.0 and 101.0 and 99.7
MCh-induced airway constriction response (Figure 5D) (guinea pig lung slices; -Log [MCh] 7.5): 104.7 and 102.5 and 101.8 and 96.6 and 103.6 and 102.8
MCh-induced airway constriction response (Figure 5D) (guinea pig lung slices; -Log [MCh] 8): 105.1 and 102.7 and 102.2 and 96.3 and 103.7 and 102.1

CC(C)NCC(O)c1ccc(O)c(O)c1 (stereo not shown) [ISO, isoproterenol, reference compound]
125I-CYP binding (% of maximal) (WT murine β2AR; log[ISO] -4 M): -0.1438% and -0.4111% and -0.227% and -0.3498%
125I-CYP binding (% of maximal) (WT murine β2AR; log[ISO] -4.49485 M): 2.592% and 1.529% and 1.507% and 1.987%
125I-CYP binding (% of maximal) (WT murine β2AR; log[ISO] -5.09691 M): 7.083% and 4.639% and 5.507% and 5.149%
125I-CYP binding (% of maximal) (WT murine β2AR; log[ISO] -5.69897 M): 19.715% and 17.6774% and 15.359% and 15.8985%
125I-CYP binding (% of maximal) (WT murine β2AR; log[ISO] -6.30103 M): 44.1973% and 39.2701% and 36.5787% and 38.852%
125I-CYP binding (% of maximal) (WT murine β2AR; log[ISO] -6.90309 M): 69.5556% and 67.7036% and 62.3553% and 65.7463%
125I-CYP binding (% of maximal) (WT murine β2AR; log[ISO] -7.50515 M): 90.4216% and 85.9767% and 84.6762% and 89.3527%
125I-CYP binding (% of maximal) (WT murine β2AR; log[ISO] -8.10721 M): 98.0111% and 97.6178% and 94.6894% and 94.0001%
125I-CYP binding (% of maximal) (WT murine β2AR; log[ISO] -8.70927 M): 99.06% and 99.1113% and 98.9767% and 100.68%
125I-CYP binding (% of maximal) (WT murine β2AR; log[ISO] -9.31133 M): 98.5309% and 100.484% and 102.846% and 102.836%
125I-CYP binding (% of maximal) (WT murine β2AR; log[ISO] -9.91339 M): 103.967% and 101.665% and 101.826% and 99.0182%
125I-CYP binding, ISO competition curve (Figure 4B) (guinea pig β2AR; Log [ISO] (M) -4.49485): 1.551 and 1.783 and 2.036 and 2.11 and 1.706
125I-CYP binding, ISO competition curve (Figure 4B) (guinea pig β2AR; Log [ISO] (M) -5.09691): 4.5383 and 7.032 and 7.563 and 7.078 and 5.303
125I-CYP binding, ISO competition curve (Figure 4B) (guinea pig β2AR; Log [ISO] (M) -5.69897): 13.7083 and 20.96 and 21.5014 and 20.9933 and 15.5868
125I-CYP binding, ISO competition curve (Figure 4B) (guinea pig β2AR; Log [ISO] (M) -6.90309): 63.0711 and 57.4939 and 78.0004 and 74.7226 and 70.0255
125I-CYP binding, ISO competition curve (Figure 4B) (guinea pig β2AR; Log [ISO] (M) -7.50515): 85.6262 and 93.2237 and 94.6971 and 93.7843 and 89.3743
125I-CYP binding, ISO competition curve (Figure 4B) (guinea pig β2AR; Log [ISO] (M) -8.10721): 99.3825 and 97.8919 and 98.1464 and 96.8121 and 98.8078
125I-CYP binding, ISO competition curve (Figure 4B) (guinea pig β2AR; Log [ISO] (M) -8.70927): 98.4434 and 97.4234 and 99.4183 and 101.041 and 99.2113
125I-CYP binding, ISO competition curve (Figure 4B) (guinea pig β2AR; Log [ISO] (M) -9.31133): 100.682 and 98.3967 and 100.968 and 99.8594 and 99.9768
125I-CYP binding, ISO competition curve (Figure 4B) (guinea pig β2AR; Log [ISO] (M) -9.91339): 97.8042 and 98.3188 and 100.175 and 101.941 and 100.458
125I-CYP binding (% of maximal) (V133F mutant murine β2AR; log[ISO] -4 M): -0.1642% and -0.422% and -0.2235% and 0.05522%
125I-CYP binding (% of maximal) (V133F mutant murine β2AR; log[ISO] -4.49485 M): 1.355% and 1.539% and 1.229% and 0.6906%
125I-CYP binding (% of maximal) (V133F mutant murine β2AR; log[ISO] -5.09691 M): 4.785% and 4.497% and 3.5069% and 4.749%
125I-CYP binding (% of maximal) (V133F mutant murine β2AR; log[ISO] -5.69897 M): 14.8509% and 14.5905% and 12.5433% and 13.7771%
125I-CYP binding (% of maximal) (V133F mutant murine β2AR; log[ISO] -6.30103 M): 36.9962% and 34.2695% and 32.8754% and 34.2526%
125I-CYP binding (% of maximal) (V133F mutant murine β2AR; log[ISO] -6.90309 M): 66.198% and 62.9489% and 57.7767% and 62.1859%
125I-CYP binding (% of maximal) (V133F mutant murine β2AR; log[ISO] -7.50515 M): 86.6591% and 87.6539% and 79.9524% and 86.2876%
125I-CYP binding (% of maximal) (V133F mutant murine β2AR; log[ISO] -8.10721 M): 96.9071% and 95.4546% and 94.0497% and 96.919%
125I-CYP binding (% of maximal) (V133F mutant murine β2AR; log[ISO] -8.70927 M): 99.4994% and 99.6962% and 98.92% and 100.879%
125I-CYP binding (% of maximal) (V133F mutant murine β2AR; log[ISO] -9.31133 M): 99.9887% and 99.7215% and 100.53% and 99.951%
125I-CYP binding (% of maximal) (V133F mutant murine β2AR; log[ISO] -9.91339 M): 102.257% and 101.759% and 102.441% and 98.1746%

CC(=O)OC(C)C[N+](C)(C)C (stereo not shown) [Methacholine, methacholine]
EC50 (guinea pig lung slices; Cavia porcellus, naive guinea pigs, no treatment, read-out: EC50 of airway constriction): 250 ± 60 nM

B1: Ovalbumin: the allergen used in IgE-sensitized guinea pigs (protein, UniProt P01012 2-386, looked up)
Ovalbumin: GSIGAASMEFCFDVFKELKVHHANENIFYCPIAIMSALAMVYLGAKDSTRTQINKVVRFDKLPGFGDSIEAQCGTSVNVHSSLRDILNQITKPNDVYSFSLASRLYAEERYPILPEYLQCVKELYRGGLEPINFQTAADQARELINSWVESQTNGIIRNVLQPSSVDSQTAMVLVNAIVFKGLWEKAFKDEDTQAMPFRVTEQESKPVQMMYQIGLFRVASMASEKMKILELPFASGTMSMLVLLPDEVSGLEQLESIINFEKLTEWTSSNVMEERKIKVYLPRMKMEEKYNLTSVLMAMGITDVFSSSANLSGISSAESLKISQAVHAAHAEINEAGREVVGSAEAGVDAASVSEEFRADHPFLFCIKHIATNAVLFFGRCVSP
EC50 of airway constriction [1]: 8.0 ± 2.4 ng/mL
